Measured values as given in BindingDB's records for doi:10.1016/s0014-2999(01)01087-1 (Janssen Research Foundation, 2001).

What was measured:
D(3) dopamine receptor = D(3) dopamine receptor (Homo sapiens, UniProt P35462)
[1] = molecular target: 5-hydroxytryptamine receptor 1A (Homo sapiens, UniProt P08908)
[2] = molecular target: 5-hydroxytryptamine receptor 2A (Homo sapiens, UniProt P28223)
[3] = molecular target: Delta-type opioid receptor (Homo sapiens, UniProt P41143)
Substance-P receptor = Substance-P receptor (Homo sapiens, UniProt P25103)
Chain of Substance-P receptor (P25103 whole entry): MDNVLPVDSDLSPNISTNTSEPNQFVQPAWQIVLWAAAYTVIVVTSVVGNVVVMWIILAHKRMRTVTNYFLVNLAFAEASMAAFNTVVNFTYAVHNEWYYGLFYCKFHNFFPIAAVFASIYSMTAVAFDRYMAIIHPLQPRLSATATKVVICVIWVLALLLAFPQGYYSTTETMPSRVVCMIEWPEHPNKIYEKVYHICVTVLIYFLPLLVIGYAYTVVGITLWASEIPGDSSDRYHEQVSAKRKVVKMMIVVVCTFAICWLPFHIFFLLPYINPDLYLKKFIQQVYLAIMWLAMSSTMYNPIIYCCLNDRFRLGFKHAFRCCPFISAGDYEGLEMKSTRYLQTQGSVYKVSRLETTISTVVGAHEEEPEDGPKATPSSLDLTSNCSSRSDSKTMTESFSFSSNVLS

[4] = molecular target: Kappa-type opioid receptor (Cavia porcellus, UniProt P41144)
[5] = molecular target: Gastrin/cholecystokinin type B receptor (Homo sapiens, UniProt P32239)
[6] = molecular target: 5-hydroxytryptamine receptor 6 (Homo sapiens, UniProt P50406)
Mu-type opioid receptor = Mu-type opioid receptor (Homo sapiens, UniProt P35372)
Chain of Mu-type opioid receptor (P35372 whole entry): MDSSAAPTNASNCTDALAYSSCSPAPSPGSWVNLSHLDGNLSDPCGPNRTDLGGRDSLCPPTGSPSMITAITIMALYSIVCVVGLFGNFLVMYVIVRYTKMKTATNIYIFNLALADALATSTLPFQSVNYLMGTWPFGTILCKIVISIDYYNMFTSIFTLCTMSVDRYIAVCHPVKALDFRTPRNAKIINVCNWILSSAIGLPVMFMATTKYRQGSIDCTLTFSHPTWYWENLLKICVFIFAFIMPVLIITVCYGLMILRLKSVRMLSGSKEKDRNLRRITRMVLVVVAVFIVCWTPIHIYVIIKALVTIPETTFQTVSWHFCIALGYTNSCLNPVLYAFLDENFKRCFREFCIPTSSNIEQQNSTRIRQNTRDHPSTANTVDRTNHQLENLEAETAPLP

[7] = molecular target: Sodium-dependent dopamine transporter (Rattus norvegicus, UniProt P23977)
Histamine H1 receptor = Histamine H1 receptor (Homo sapiens, UniProt P35367)
[8] = molecular target: Beta-3 adrenergic receptor (Homo sapiens, UniProt P13945)
[9] = molecular target: 5-hydroxytryptamine receptor 1D (Homo sapiens, UniProt P28221)
[10] = molecular target: 5-hydroxytryptamine receptor 7 (Homo sapiens, UniProt P34969)
Chain of 5-hydroxytryptamine receptor 7 (P34969 whole entry): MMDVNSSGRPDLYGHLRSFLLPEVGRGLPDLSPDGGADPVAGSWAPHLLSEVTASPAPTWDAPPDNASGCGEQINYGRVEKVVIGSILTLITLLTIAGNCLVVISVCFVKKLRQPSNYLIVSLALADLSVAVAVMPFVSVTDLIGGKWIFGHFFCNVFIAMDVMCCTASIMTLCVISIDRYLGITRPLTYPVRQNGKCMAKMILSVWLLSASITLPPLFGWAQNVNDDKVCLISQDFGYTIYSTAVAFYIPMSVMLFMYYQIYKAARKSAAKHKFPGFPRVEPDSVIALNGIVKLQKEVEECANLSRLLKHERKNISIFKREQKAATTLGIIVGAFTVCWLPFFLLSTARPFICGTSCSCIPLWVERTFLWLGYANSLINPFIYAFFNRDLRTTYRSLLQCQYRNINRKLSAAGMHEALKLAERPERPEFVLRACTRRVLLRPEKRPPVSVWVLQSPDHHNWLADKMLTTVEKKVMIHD

[11] = molecular target: 5-hydroxytryptamine receptor 1E (Homo sapiens, UniProt P28566)
D(4) dopamine receptor = D(4) dopamine receptor (Homo sapiens, UniProt P21917)
Chain of D(4) dopamine receptor (P21917 whole entry): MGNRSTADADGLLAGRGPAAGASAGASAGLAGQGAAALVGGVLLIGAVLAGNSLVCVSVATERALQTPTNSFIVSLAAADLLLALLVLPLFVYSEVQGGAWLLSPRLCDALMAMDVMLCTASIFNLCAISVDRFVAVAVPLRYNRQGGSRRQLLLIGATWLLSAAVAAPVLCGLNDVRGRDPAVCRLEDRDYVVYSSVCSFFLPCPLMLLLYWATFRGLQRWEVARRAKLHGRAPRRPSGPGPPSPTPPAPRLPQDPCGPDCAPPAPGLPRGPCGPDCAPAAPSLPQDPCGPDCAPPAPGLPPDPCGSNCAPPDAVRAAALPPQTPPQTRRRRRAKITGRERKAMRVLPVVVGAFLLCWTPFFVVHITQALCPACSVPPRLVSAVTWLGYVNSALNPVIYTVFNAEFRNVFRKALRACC

[12] = molecular target: Beta-2 adrenergic receptor (Homo sapiens, UniProt P07550)
[13] = molecular target: 5-hydroxytryptamine receptor 3A (Mus musculus, UniProt P23979)
Substance-K receptor = Substance-K receptor (Homo sapiens, UniProt P21452)
Chain of Substance-K receptor (P21452 whole entry): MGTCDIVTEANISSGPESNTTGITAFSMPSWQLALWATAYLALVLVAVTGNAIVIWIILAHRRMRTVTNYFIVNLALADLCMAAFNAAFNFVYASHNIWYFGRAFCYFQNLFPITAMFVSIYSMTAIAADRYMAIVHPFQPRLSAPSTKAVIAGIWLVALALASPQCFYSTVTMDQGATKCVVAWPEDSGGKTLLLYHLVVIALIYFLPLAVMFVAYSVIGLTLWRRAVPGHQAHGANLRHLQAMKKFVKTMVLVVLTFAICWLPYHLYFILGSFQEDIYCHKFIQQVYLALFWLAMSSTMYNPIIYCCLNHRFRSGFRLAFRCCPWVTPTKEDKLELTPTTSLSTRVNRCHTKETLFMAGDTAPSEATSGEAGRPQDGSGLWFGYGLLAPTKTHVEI

Neuromedin-K receptor = Neuromedin-K receptor (Homo sapiens, UniProt P29371)
[14] = molecular target: Alpha-1A adrenergic receptor (Homo sapiens, UniProt P35348)
[15] = molecular target: 5-hydroxytryptamine receptor 5A (Homo sapiens, UniProt P47898)
[16] = molecular target: Alpha-2B adrenergic receptor (Homo sapiens, UniProt P18089)
[17] = molecular target: Alpha-2C adrenergic receptor (Homo sapiens, UniProt P18825)
[18] = molecular target: 5-hydroxytryptamine receptor 1F (Homo sapiens, UniProt P30939)
B2 bradykinin receptor = B2 bradykinin receptor (Homo sapiens, UniProt P30411)
[19] = molecular target: Voltage-dependent L-type calcium channel subunit alpha-1C (Rattus norvegicus, UniProt P22002)
[20] = molecular target: Gastrin/cholecystokinin type B receptor (Rattus norvegicus, UniProt P30553)
Chain of Gastrin/cholecystokinin type B receptor (Rattus norvegicus, UniProt P30553) (P30553 whole entry): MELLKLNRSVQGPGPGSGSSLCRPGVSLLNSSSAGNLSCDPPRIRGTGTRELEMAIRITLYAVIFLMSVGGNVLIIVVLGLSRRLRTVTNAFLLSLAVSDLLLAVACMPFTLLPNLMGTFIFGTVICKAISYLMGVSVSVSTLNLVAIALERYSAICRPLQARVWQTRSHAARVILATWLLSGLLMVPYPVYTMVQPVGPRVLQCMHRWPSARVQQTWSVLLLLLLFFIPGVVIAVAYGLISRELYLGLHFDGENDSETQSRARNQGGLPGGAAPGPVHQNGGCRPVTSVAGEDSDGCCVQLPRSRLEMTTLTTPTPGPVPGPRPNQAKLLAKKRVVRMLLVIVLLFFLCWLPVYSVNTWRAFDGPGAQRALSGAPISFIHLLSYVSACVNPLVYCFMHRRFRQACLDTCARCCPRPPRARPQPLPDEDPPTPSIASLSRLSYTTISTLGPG

[21] = molecular target: Glutamate receptor ionotropic, NMDA 1 (Rattus norvegicus, UniProt P35439)
[22] = molecular target: Sodium- and chloride-dependent glycine transporter 1 (Rattus norvegicus, UniProt P28572)
[23] = molecular target: Sodium- and chloride-dependent glycine transporter 2 (Homo sapiens, UniProt Q9Y345)
Chain of Sodium- and chloride-dependent glycine transporter 2 (Q9Y345 whole entry): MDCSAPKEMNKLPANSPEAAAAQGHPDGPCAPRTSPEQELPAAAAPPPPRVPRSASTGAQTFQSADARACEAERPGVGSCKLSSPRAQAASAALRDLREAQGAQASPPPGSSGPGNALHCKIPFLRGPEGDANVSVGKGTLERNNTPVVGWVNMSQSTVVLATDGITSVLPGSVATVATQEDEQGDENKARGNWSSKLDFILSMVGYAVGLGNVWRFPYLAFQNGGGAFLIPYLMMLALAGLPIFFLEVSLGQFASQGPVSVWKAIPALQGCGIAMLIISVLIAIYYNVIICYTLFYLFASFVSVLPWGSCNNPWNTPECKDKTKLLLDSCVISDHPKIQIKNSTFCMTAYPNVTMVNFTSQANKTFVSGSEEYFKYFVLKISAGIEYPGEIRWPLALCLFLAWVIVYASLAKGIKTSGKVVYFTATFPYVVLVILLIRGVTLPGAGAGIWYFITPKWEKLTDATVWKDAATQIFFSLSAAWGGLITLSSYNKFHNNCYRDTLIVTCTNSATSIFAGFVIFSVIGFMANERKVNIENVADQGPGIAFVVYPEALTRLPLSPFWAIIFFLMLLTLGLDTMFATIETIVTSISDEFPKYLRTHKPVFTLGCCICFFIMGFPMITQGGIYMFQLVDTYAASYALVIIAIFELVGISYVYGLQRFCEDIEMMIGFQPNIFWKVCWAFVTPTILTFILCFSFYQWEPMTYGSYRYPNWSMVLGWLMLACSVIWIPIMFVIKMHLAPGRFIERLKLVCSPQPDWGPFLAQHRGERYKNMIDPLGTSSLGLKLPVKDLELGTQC

[24] = molecular target: Cysteinyl leukotriene receptor 1 (Cavia porcellus, UniProt Q2NNR5)
Chain of Cysteinyl leukotriene receptor 1 (Q2NNR5 whole entry): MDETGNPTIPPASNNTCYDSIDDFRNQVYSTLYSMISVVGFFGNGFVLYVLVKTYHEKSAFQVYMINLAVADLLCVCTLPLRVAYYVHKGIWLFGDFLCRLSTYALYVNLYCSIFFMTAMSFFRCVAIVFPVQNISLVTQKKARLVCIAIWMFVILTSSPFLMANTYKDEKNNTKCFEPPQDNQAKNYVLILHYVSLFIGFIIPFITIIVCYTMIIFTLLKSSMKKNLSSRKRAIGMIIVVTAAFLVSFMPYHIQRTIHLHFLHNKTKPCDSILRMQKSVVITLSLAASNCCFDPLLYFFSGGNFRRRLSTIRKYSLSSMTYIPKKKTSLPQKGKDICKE

[25] = molecular target: Norepinephrine transporter (Rattus norvegicus, UniProt Q9JIA2)
Neurotensin = Neurotensin (Cavia porcellus, UniProt P32560)
[26] = molecular target: Vasoactive intestinal polypeptide receptor 1 (Homo sapiens, UniProt P32241)
Chain of Vasoactive intestinal polypeptide receptor 1 (P32241 whole entry): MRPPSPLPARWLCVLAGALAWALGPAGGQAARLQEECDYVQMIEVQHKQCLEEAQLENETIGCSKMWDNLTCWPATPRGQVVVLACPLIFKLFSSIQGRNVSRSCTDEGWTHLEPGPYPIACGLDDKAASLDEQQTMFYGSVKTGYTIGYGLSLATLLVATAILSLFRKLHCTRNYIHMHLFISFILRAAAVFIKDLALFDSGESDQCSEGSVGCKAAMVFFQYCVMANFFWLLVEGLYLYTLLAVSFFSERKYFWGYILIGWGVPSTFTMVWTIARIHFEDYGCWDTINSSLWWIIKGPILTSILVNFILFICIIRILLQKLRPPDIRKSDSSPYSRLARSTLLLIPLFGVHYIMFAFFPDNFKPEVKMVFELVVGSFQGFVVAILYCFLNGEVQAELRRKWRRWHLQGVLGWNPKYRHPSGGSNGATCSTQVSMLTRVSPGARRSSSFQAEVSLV

[27] = molecular target: Beta-1 adrenergic receptor (Homo sapiens, UniProt P08588)
[28] = molecular target: 5-hydroxytryptamine receptor 2C (Homo sapiens, UniProt P28335)
[29] = molecular target: Alpha-2A adrenergic receptor (Homo sapiens, UniProt P08913)
Thromboxane A2 receptor = Thromboxane A2 receptor (Homo sapiens, UniProt P21731)

Chain of D(3) dopamine receptor (P35462 as listed by the source): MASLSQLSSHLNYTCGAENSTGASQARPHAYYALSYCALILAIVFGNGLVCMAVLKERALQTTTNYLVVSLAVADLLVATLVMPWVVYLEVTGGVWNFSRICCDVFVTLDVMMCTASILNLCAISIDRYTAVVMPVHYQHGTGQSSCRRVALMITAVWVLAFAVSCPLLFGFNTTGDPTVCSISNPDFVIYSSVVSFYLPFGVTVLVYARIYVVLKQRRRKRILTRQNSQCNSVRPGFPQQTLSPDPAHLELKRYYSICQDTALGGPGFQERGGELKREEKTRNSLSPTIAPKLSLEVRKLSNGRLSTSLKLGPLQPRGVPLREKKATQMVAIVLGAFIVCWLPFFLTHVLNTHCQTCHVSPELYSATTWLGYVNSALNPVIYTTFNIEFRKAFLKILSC
Chain of 5-hydroxytryptamine receptor 1A (P08908 whole entry): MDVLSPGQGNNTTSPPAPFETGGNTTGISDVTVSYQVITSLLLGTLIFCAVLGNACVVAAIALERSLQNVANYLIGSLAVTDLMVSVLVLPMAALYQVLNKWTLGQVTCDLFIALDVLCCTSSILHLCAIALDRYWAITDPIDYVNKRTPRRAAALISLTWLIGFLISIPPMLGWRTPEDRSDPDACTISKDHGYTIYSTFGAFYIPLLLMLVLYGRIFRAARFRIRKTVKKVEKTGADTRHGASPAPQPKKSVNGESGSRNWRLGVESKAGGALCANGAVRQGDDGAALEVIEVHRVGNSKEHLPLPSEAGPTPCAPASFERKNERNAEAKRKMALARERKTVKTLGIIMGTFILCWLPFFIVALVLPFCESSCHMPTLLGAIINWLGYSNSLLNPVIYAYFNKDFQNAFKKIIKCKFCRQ

COCCCN1CCC(NC(=O)c2cc(Cl)c(N)c3c2OCC3)CC1 [4-Amino-5-chloro-2,3-dihydro-benzofuran-7-carboxylic acid [1-(3-methoxy-propyl)-piperidin-4-yl]-amide]
Ki (D(3) dopamine receptor): > 10 µM | Ki [1]: > 10 µM | Ki [2]: > 10 µM | Ki [3]: > 10 µM | Ki (Substance-P receptor): > 10 µM | Ki [4]: > 10 µM | Ki [5]: > 10 µM | Ki [6]: > 10 µM | Ki (Mu-type opioid receptor): > 10 µM | Ki [7]: > 10 µM | Ki (Histamine H1 receptor): > 10 µM | Ki [8]: > 10 µM | Ki [9]: > 10 µM | Ki [10]: > 10 µM | Ki [11]: > 10 µM | Ki (D(4) dopamine receptor): 2.35 µM | Ki [12]: > 10 µM | Ki [13]: 3.82 µM | Ki (Substance-K receptor): > 10 µM | Ki (Neuromedin-K receptor): > 10 µM | Ki [14]: > 10 µM | Ki [15]: > 10 µM | Ki [16]: > 10 µM | Ki [17]: > 10 µM | Ki [18]: > 10 µM | Ki (B2 bradykinin receptor): > 10 µM | Ki [19]: > 10 µM | Ki [20]: > 10 µM | Ki [21]: > 10 µM | Ki [22]: > 10 µM | Ki [23]: > 10 µM | Ki [24]: > 10 µM | Ki [25]: > 10 µM | Ki (Neurotensin): > 10 µM | Ki [26]: > 10 µM | Ki [27]: > 10 µM | Ki [28]: > 10 µM | Ki [29]: > 10 µM | Ki (Thromboxane A2 receptor): > 10 µM
